The values below come from patent US20020179457A1, “Electrochemical method for high-throughput screening of minute quantities of candidate compounds” (priority 2001, published 2002).

For one experiment, the target named is horseradish peroxidase (Armoracia rusticana, UniProt P00433). Particulars: pH 7.
A further experiment concerns the target acetylcholine esterase (Homo sapiens, UniProt P22303). In words: electrochemical flow cell assay of inhibition of acetylcholine esterase (esterase/choline oxidase/peroxidase cascade). The format is biochemical.

horseradish peroxidase, sequence (P00433 31-338): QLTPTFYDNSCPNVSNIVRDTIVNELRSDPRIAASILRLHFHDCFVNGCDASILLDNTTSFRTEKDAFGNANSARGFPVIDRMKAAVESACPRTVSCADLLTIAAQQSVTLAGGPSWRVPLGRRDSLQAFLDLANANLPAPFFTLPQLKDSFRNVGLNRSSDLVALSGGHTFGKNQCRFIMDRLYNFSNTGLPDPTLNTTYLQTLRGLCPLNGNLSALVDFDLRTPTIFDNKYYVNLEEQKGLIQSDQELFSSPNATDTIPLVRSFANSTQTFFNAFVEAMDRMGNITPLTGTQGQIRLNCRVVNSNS
acetylcholine esterase, sequence (P22303 32-614): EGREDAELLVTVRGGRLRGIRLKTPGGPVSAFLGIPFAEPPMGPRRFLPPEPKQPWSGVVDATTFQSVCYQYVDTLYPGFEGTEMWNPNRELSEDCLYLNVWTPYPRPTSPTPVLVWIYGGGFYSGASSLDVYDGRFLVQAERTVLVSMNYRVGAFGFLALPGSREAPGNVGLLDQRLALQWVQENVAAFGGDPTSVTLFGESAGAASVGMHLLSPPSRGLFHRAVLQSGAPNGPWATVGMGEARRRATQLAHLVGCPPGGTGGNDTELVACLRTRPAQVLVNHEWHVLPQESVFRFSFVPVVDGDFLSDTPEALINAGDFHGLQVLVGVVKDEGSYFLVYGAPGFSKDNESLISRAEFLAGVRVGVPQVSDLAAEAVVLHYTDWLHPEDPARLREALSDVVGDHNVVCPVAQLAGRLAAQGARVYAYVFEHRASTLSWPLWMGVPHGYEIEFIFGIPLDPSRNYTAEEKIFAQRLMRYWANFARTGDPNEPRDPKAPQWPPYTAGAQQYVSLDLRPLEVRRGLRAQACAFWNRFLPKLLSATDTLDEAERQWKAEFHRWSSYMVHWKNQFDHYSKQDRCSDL
Experimental for acetylcholine esterase: An aqueous carrier liquid is prepared in an oxygen-containing atmosphere to comprise the buffer of Example 1 and acetylcholine, the total volume of the liquid being less than 0.1 mL. Two samples are prepared. The first sample contains only the buffered acetylcholine solution; the second sample contains the liquid carrier and 100 pg malathion, an insecticide.
The first sample is introduced into the flow cell through the inlet, and the working electrode is poised at +0.1 V versus the standard calomel electrode. The acetylcholine in the solution is hydrolyzed by the esterase on the electrode, producing choline, which, in turn, combines with dissolved oxygen to form hydrogen peroxide. The hydrogen peroxide is electroreduced to water. An electric current is produced between the electrodes as a result. The current produced provides a baseline against which current produced as a result of enzymatic inhibition is measured.
Experimental for horseradish peroxidase: A system with a total volume of 0.1 mL comprising a flow cell is constructed. The cell comprises a detection chamber having an interior volume of 5 μl, an inlet for directing a stream of liquid into the detection chamber, and an outlet for directing liquid out of the detection chamber. The detection chamber contains a working electrode for assessing the capability of candidate compounds for inhibiting the catalytic activity of horseradish peroxidase, a carbon paste counter electrode, and downstream from the working electrode, near the outlet, a standard calomel reference electrode. The working electrode is formed by co-depositing on a conductive substrate horseradish peroxidase and a redox polymer formed of poly(4-vinyl pyridine) partially reacted with 2-bromoethylamine and partially complexed with [Os(bpy)2Cl]^+/2+ where bpy=2,2′-bipyridine complex of osmium (2+/3+) and poly(4-vinyl pyridine). The horseradish peroxidase and the redox polymer are crosslinked on the substrate by periodate oxidation, whereby aldehyde functions are produced in the oligosaccharides of the peroxidase, and by adding PEGDGE, polyethylene glycol diglycidyl ether.
An aqueous pH 7 phosphate buffer comprises 0.15 M NaCl and 1 mM hydrogen peroxide. Three liquid samples are prepared, each sample 0.1 mL. […]

For the compound `[N-]=[N+]=[N-].[Na+]` [azide, sodium azide], the “current passing from one electrode to another, versus baseline (inhibition of catalytic activity of horseradish peroxidase)” value on horseradish peroxidase is listed as “decreased”.
As for `CCOC(=O)CC(SP(=S)(OC)OC)C(=O)OCC` (centres unmarked) [malathion], at acetylcholine esterase, the “current passing from one electrode to another, versus baseline (inhibition of catalytic activity of acetylcholine esterase)” value is on record as “decreased”.
